# Values of other authors as cited in patent publication US20070010426A1, “Composition for preventing and treating cardiovascular disorders” (Maxluck Biotechnology Corp., priority 2005, published 2007).
# Test system: obese mouse
substance,measurement,value
chromium picolinate,Effect on blood lipids,reduce the blood lipids
